For test [1], the system named is mouse hepatic fibrosis model induced by CCl4. As to the kind of experiment: Mouse hepatic fibrosis model induced by carbon tetrachloride (CCl4). It is filed as in vivo. Particulars: gavage 5 mg/kg once a day, 6 weeks. The protocol: Mouse hepatic fibrosis model: male C577BL/6 mice (8-week old) were used with 8 in each group and were injected intra-abdominally with 0.2 ml (diluted by olive oil) of 10% CCl4 twice a week; and a control group was injected intra-abdominally with an equal volume of olive oil for 18 consecutive weeks.

In test [2] the test system is chronic lymphocytic leukemia. Particulars: phase II clinical trials of chronic lymphocytic leukemia; cited from earlier work.

The structures appear in SMILES notation.

For `c1cn2cc(-c3ccc4cn[nH]c4c3)nc(Nc3ccc(N4CCOCC4)cc3)c2n1` [GS-9973, Entospletinib], the “generation of hepatic collagen (Sirius Red staining)” value in test [1] was “remarkably inhibit”. Also, the effective rate in test [2] is on record as 91%.

Values taken from US20180044685A1, “APPLICATION OF SYK SERVING AS THERAPEUTIC TARGET FOR HEPATIC FIBROSIS/HEPATIC CIRRHOSIS” (priority 2015, published 2018).
